This experiment in a line: Additional benefits of taking betaine in people. The format is in vivo. The source says:
While the main benefit of a person or pet taking vitamin C and betaine in combination is the prevention/suppression of tumors, as mentioned before, additional benefits can be obtained depending upon the levels taken. Betaine is known to improve cardiovascular health, and can benefit people with fatty deposits in the liver. […] After only a few weeks of taking the betaine, cholesterol levels are reduced and the ability to lose weight is improved.

SMILES strings stand for the structures.

For `C[N+](C)(C)CC(=O)[O-]` [betaine, trimethylglycine], for the setting “after a few doses at about one and a half to about three grams per day, especially older people”, the “tendency to be light headed when getting up after prolonged squatting or kneeling” value was “considerably lessened”. Further, the cholesterol levels result (after only a few weeks of taking the betaine) is reported as “reduced”.

Source of the values: patent US9597311B2, “Suppression and prevention of tumors” (priority 2005, dated 2017).
